# Test results taken from a melting point compilation (Tetko et al.; mined from patent text by program, amines drawn as free bases though some values may be those of a salt).
row,melting point,Compound
1,182 to 185 °C,COC(=O)[C@H](Cc1cccc2ccccc12)NC(=O)[C@H](CC(=O)OC(C)(C)C)NC(=O)c1cccc(NC(=O)C(Cc2ccc(C#N)cc2)NC(=O)OC(C)(C)C)c1 (mixture of isomers)
2,164 to 167 °C,Cc1cc(C)cc(NC(=O)Cc2ccc(OC3(C(=O)O)CCOC3C)cc2)c1 (racemic)
3,120 °C,COc1c(/C=C/c2ccc(C#N)cc2)c(C)cc2c1C(C)(C)CCC2(C)C
4,56.5 to 58.5 °C,CC(C)CSc1ccc(N)c([N+](=O)[O-])c1
5,190 to 193 °C,O=C1CCC(c2ccc(Cl)c([N+](=O)[O-])c2)=NN1
6,157 to 158 °C,COc1ccc(N2CCCN(/C(C)=C(/C#N)C(N)=S)CC2)cc1
7,> 250 °C,CC1CCCN(c2c(Br)cc3c4c(cccc24)C(=O)N(O)C3=O)C1 (stereo unspecified)
8,110 to 116 °C,CC(C)(C(=O)O)C1OCCc2ccccc21 (stereo unspecified)
9,85 to 88 °C,CCOC(=O)C(CNC(=O)c1ccccc1)C(=O)C(F)(F)F (stereo unspecified)
10,144 to 145 °C,CC1CC(=O)c2cc([N+](=O)[O-])ccc2O1 (stereo unspecified)
11,75 to 76 °C,CCN(CC)c1ccc([N+](=O)[O-])cn1
12,128 °C,COc1cc(CC(C)=O)ccc1OCC(O)CN1CCN(c2ccccc2C)CC1 (stereo unspecified)
13,126 to 127 °C,COc1ccc(S(=O)(=O)Nc2cccnc2Nc2ccc(OC)c(OC)c2)cc1
14,103 to 106 °C,CCOC[PH](=O)SCCSCCNC(=O)CCCCCn1c(=O)n(C)c(=O)c2[nH]cnc21 (stereo unspecified)
15,266 to 268 °C,O=C(c1cc(-c2ccccc2)c(=O)n2c1-c1ccccc1C2)N1CCSCC1
16,59 to 60 °C,CCCCOC(=O)Nc1cccc(C(C)=O)c1
17,71 to 72 °C,CC(=O)C=Cc1cccc(OCCF)c1OCCF
18,127 to 130 °C,Nc1n[nH]cc1-c1ccc(Cc2ccccc2)cc1
19,79.3 °C,COC(=O)c1ccc(Br)cc1CSC

row,melting point,Compound
1,121 to 123 °C,CCCc1c(OCCCSc2ccc(C(=O)CCC(=O)O)cc2)ccc(C(C)=O)c1OC(C)=O
2,167 to 168 °C,Cc1ccc(-c2nnc(N3CCC(O)CC3)nc2-c2ccc(C)cc2)cc1
3,101 to 102 °C,CC(=O)SC(CC(=O)c1ccc(C)cc1C)C(=O)O (stereo unspecified)
4,142 to 144 °C,COc1ccc([C@@H]2C[C@H]2NC(=O)N(C)O)cc1OC (relative stereo)
5,91 °C,O=C(O)CCCCCCCCCCc1ccc(Br)cc1
6,104 to 105 °C,Cc1oc(-c2ccc(C(F)(F)F)cc2)nc1COc1cccc(C=CC(C)n2oc(=O)[nH]c2=O)c1 (stereo unspecified)
7,200 to 203 °C,Cc1oc2c(NC(=O)c3c(Cl)cccc3Cl)cccc2c1CN
8,64 °C,Nc1cc(CNc2ccccc2C(=O)Nc2cccc(C(F)(F)F)c2)ccn1
9,65 to 70 °C,COc1ccc(S(=O)(=O)C(CC(=O)NO)Cc2ccc(Oc3ccccc3)cc2)cc1 (stereo unspecified)
10,90.5 to 92.5 °C,CN1CCN(CCCN2N=C3C(=Cc4ccccc4)CSCC3C2c2ccccc2)CC1 (stereo unspecified)
11,186 to 187 °C,Cc1cc(C)n(-c2nc(Nc3ccc(Cl)cc3)cc(N3CCOCC3)n2)n1
12,214 to 216 °C,Cn1cc(C(=O)NCc2ccc(F)cc2)c(=O)c2cc(CN3CCOCC3)sc21
13,78 to 79 °C,C=CCOc1cccc(C(=O)O)c1
14,158 to 162 °C,Cc1cc(-c2ccccc2)n2nc(C(=O)N(C)C3CCCCC3)cc2n1
15,249 to 251 °C,CCOC(=O)c1cnn2c1c(O)nc1ccccc12
16,116 to 120 °C,COc1ccc(N2CCN(c3ccc(OC(F)(F)F)cc3)C(=O)C2)c(-c2ccc(N(C)C)cc2)n1
17,155 to 164 °C,COc1ccc(-n2nnc(-c3ccc(Cl)cc3Cl)c2N)cc1
18,130 to 134 °C,C[C@H](CC(=O)[C@H](Cc1ccccc1)OC(=O)c1ccccc1)C(=O)N1CCC[C@H]1C(=O)O

# The next lines start with the molecule.
row,Compound,melting point
1,Cc1nc(O)sc1C(=O)CBr,162 °C
2,CN1CCCNC1=C[N+](=O)[O-],114 to 115 °C
3,N#Cc1cnc2c(sc3ccccc32)c1Nc1cccc(Br)c1,240 to 242 °C
4,CCCc1nc2c(N)nc3ccc(-c4ccc(NC(C)=O)cc4)cc3c2s1,251 to 254 °C
5,Nc1ncc2ncn(OCC(O)CO)c2n1 (stereo unspecified),183 to 185 °C
6,CCn1cc(CC(=O)OC)c(O)n1,72 to 73 °C
7,COc1cc(O)nc2cc(-c3cc(C)c(O)c(C)c3)[nH]c(=O)c12,> 330 °C
8,COc1cccc(CN(CC(=O)O)Cc2ccccc2)c1,177 to 179 °C
9,Nc1cc(=O)n(Cc2ccccc2F)[nH]1,146 °C
10,CC(C)(C)OC(=O)COc1ccc([N+](=O)[O-])cc1F,62 to 64 °C
11,CCOCCOc1c(C)cc(-c2ccc3c(c2)C=C(C(=O)Nc2ccc(CN(C)C4CCOCC4)cc2)CCS3(=O)=O)cc1C,211 to 212 °C
12,N#CC1=C(C2CCNCC2)Nc2n[nH]cc2C1c1cccc(C#N)c1Br (stereo unspecified),> 270 °C
13,N#Cc1c(C(=O)O)cnn1-c1ccc(Br)cc1,209 to 211 °C
14,COC(=O)c1ccc(Cc2cn(CC(=O)N(C)C)c3ccc(NC(=O)CC4CCCC4)cc23)c(OC)c1,129 to 132 °C
15,O=C(NC1CCN(CCc2ccccc2)C1)C12CC3CC(CC(C3)C1)C2 (stereo unspecified),119 to 121 °C
16,C[C@@H](C(N)=O)c1ccc(NS(=O)(=O)c2ccc(C(F)(F)F)cc2)cc1,178 to 180 °C
17,c1ccc(C(Cn2cncn2)c2ccccc2)cc1,107 to 108 °C
18,O=[N+]([O-])c1ccc(-c2cc(-c3ccc(Cl)cc3)[nH]c2C(F)(F)F)s1,65 to 66 °C
19,CCC(=O)NCc1ccc2ccn(C3CCN(CCc4ccc(F)cc4)CC3)c2c1,141 to 142 °C
20,N=C(NC(=O)c1ccc2ccccc2c1)c1ccc(N2CC(CN3CCN(CCC(=O)O)CC3)OC2=O)cc1 (stereo unspecified),80 to 83 °C
21,N#Cc1ccc(N2C(=O)NC(CO)(CO)C2=O)cc1C(F)(F)F,207 to 208 °C
22,COc1cc(C(=O)c2cnc(Cl)nc2Cl)cc(OC)c1OC,140 to 141 °C

row,Compound,melting point
1,O=C(NC1CCC(CCN2CCN(c3nccc4c3OCC4)CC2)CC1)C1CCOC1 (stereo unspecified),195 °C
2,CCCn1nc2c(N)nc3cnccc3c2c1CCNC(=O)c1ccc(F)cc1,317 to 318 °C
3,C=CCc1c(O)nc(N)nc1O,> 250 °C
4,CN(C(N)=O)C1CCCc2ccccc21 (stereo unspecified),160 to 163 °C
5,CCCOc1ccc(S(=O)(=O)Nc2ccc3[nH]ncc3c2)cc1-c1nc2cc(Cl)c([N+](=O)[O-])cc2c(=O)[nH]1,261 to 263 °C
6,O=C(O)C(=O)c1ccc(OCCc2ccccc2)cc1,72 to 73 °C
7,O=C1N(Cc2ccc(C(F)(F)F)o2)c2cccc(-c3cncnc3)c2C12COc1cc3c(cc12)CCO3 (stereo unspecified),263 to 266 °C
8,CN(C)S(=O)(=O)Nc1cccc(-c2cccc(-c3nc(-c4ccc(C(F)(F)F)cc4)cc(C(F)(F)F)n3)c2)c1,113 °C
9,O=C(O)CCC(=O)Nc1ccc2[nH]c(=O)c3ccccc3c2c1,224 to 228 °C
10,Cn1c(=O)nc(-c2ccccc2F)c2ccsc21,222 to 223 °C
11,Clc1cccc2c1CCCC2c1c[nH]cn1 (stereo unspecified),165 to 169 °C
12,COc1cc2c(cc1C)CCN=C2C1(C2C=CCCC2)CCC1 (stereo unspecified),70 to 73 °C
13,O=C1CS(=O)(=O)c2ccccc21,133 to 134 °C
14,CCCCCCCC1=CC(=O)N(c2ccccc2)C1(O)CBr (stereo unspecified),152 to 154 °C
15,COc1c(F)cc2[nH]c(C)c(CC(=O)OCC[Si](C)(C)C)c2c1F,86.9 to 88.7 °C
16,CS(=O)(=O)c1ccc(-n2nc(CNC(=O)Nc3ccc(OC(F)(F)F)cc3)cc2-c2ccccc2)cc1,153 to 156 °C
17,CCOC(=O)C(=CNC1CC1)C(=O)c1cc(Cl)c(F)c(F)c1F,71 to 73 °C
18,CCOC(=O)c1ncc2[nH]c3ccc(-c4ccccc4)cc3c2c1C,241 to 242 °C
19,CCCN(CCCCNC(=O)N1CC=C(c2ccccc2)CC1)C1CCc2ncsc2C1 (stereo unspecified),115 °C
20,Fc1cccc([C@@H]2COCC(=S)N2)c1,124 to 125 °C
21,Clc1c(CBr)c(CBr)cc2ccccc12,108 °C
22,CSc1nc(Cl)cc(P(C)(C)=O)n1,172 to 182 °C

row,Compound,melting point
1,CCCC[C@H](NC(=O)[C@H](CC(C)C)NC(=O)OCc1ccc(F)cc1)C(=O)CSCc1ccco1,67 to 68 °C
2,COc1cc(CN2C(=O)C3(COc4cc5c(cc43)OCCO5)c3ccccc32)cc(OC)c1 (stereo unspecified),192 to 195 °C
3,NC(=O)c1cn(C(CO)CCc2cccc(C(F)(F)F)c2)cn1 (stereo unspecified),103 to 106 °C
4,CC(C)n1nc(-c2cc(C#N)c(=O)[nH]c2-c2ccccc2)ccc1=O,> 250 °C
5,N=C(N)Nc1nc(C(=O)Nc2cccc(C(=O)NC(CC(=O)O)c3ccccc3)c2)cs1 (racemic),235 °C
6,COC(=O)C(C)(OCc1ccc2cc(OC)ccc2c1)C(F)(F)F (stereo unspecified),60 to 62 °C
7,O=C(O)CCCc1ccc(F)cc1F,45 to 47 °C
8,CC(O)C(NC(=O)OCc1ccccc1)C(=O)NN (stereo unspecified),135 °C
9,COc1ccc(-n2ncc3c2-c2ccccc2C3)cc1,102 to 103 °C
10,CC1(CO)Cn2cc([N+](=O)[O-])nc2O1 (stereo unspecified),162 to 163 °C
11,O=C(Nc1ccc(F)cc1F)c1cncc(Sc2cccc([N+](=O)[O-])c2)n1,131 to 135 °C
12,COc1ccc(Cl)cc1-c1c(S)c(=O)[nH]c2ccc(C(F)(F)F)cc12,239 to 241 °C
13,CCCCNC(=O)Nc1ncc2cc(-c3c(Cl)cccc3Cl)c(NC(=O)NCCCC)nc2n1,200 to 202 °C
14,CCCO[C@@H]1[C@@H](OC)[C@H](C)O[C@@H](ON=Cc2ccc(/C=C/c3ccc(OC(F)(F)F)cc3)cc2)[C@@H]1OC,124 to 132 °C
15,COc1ccc2occ(CCN3CCN(c4cc(Cl)cc5cccnc45)CC3)c2c1,72 °C
16,Cn1nnnc1CO/N=C(\C(=O)O)c1csc(N)n1,185 °C
17,Cc1noc(NS(=O)(=O)c2ccccc2-c2ccccc2)c1Cl,132 to 134 °C
18,NNC(=O)CCc1csc(NC(N)=NCC(F)(F)F)n1,125 to 126 °C
19,CNC(=O)[C@@H](N)Cc1ccc(OC)cc1,90 to 91 °C
20,N#CCOc1ccc2cc(-c3cnc(-c4cn(Cc5ccccc5)c5ccccc45)o3)ccc2c1,205 to 208 °C
